Consider 3 compounds from US20220273684A1, “Systems and Methods to Identify Pancreatic Ductal Adenocarcinoma and Uses Thereof” (The Board of Trustees of the Leland Stanford Junior …, priority 2021, published 2022).

Assay [1] relates to acinar cell-derived PDAC cell lines. Briefly: Cell viability assay (MTT) after incubation with drug, acinar cell-derived PDAC cell lines. The assay is classed as cell-based. On the procedure: (§1) FIGS. 4A-4E illustrate exemplary data that acinar and ductal cell-derived pancreatic cancer cells have different sensitivities to multiple therapeutic agents in accordance with various embodiments of the invention. FIG. 4A illustrates an exemplary method to identify agents to treat specific types of tumors and/or treating an individual based on tumor signature. FIG. 4B illustrates a schematic of the experimental setup. FIG. 4C illustrates cell viability after a 24 hour incubation with 25 μM of GSK-3β inhibitor, TDZD-8. FIG. 4D illustrates cell viability after a 48 hour incubation with 1 mM of glucose analog, 2-DG. FIG. 4E illustrates cell viability after a 72 hour incubation with 100 μM of AKT kinase inhibitor, Capivasertib.
Turning to FIGS. 4A-4E, various embodiments are capable of identifying agents to treat specific types of tumors and/or treating an individual based on tumor signature. Specifically, FIG. 4A illustrates a method 400 to test one or more treatments against tumor-derived cells. At 402, many embodiments obtain one or more cultures of cells. […]
Turning back to FIG. 4A, after treatment, many embodiments assess cellular growth at 408. Cellular growth can be assessed manually or automatedly. […]

Assay [2] has as its system ductal cell-derived PDAC cell lines. The assay can be described thus: Cell viability assay (MTT) after incubation with drug, ductal cell-derived PDAC cell lines. Conditions: 72 hour incubation with 100 μM Capivasertib; ductal cell-derived relative to acinar cell-derived PDAC lines (FIG. 4E). The assay is classed as cell-based. As for the experimental part: as §1, with “Capivasertib. Turning to FIGS. 4A-4E, various embodiments are capable of identifying agents to treat specific types of tumors and/or treating an individual based on tumor signature. Specifically, FIG. 4A illustrates a method 400 to test one or more treatments against tumor-derived cells. At 402, many embodiments obtain one or more cultures of cells. In various embodiments, the derived tumor cells are obtained as an admixture of cells, while some embodiments obtain cells as a single type (e.g., healthy, acinar cell-derived, or ductal cell-derived). […] Cellular growth can be assessed manually or automatedly. […]” for “Capivasertib.”

Consider `OCC1OC(O)CC(O)C1O` (stereo not drawn) [2-DG], for which the cell viability entry in assay [1] (48 hour incubation with 1 mM 2-DG, acinar cell-derived relative to ductal cell-derived PDAC lines (FIG. 4D)) is given as “increased viability”. Regarding `NC1(C(=O)N[C@@H](CCO)c2ccc(Cl)cc2)CCN(c2ncnc3[nH]ccc23)CC1` [Capivasertib], the cell viability result in assay [2] is reported as “increased viability”.

In the case of `Cn1sc(=O)n(Cc2ccccc2)c1=O` [TDZD-8], the cell viability entry in assay [1] (24 hour incubation with 25 μM TDZD-8, acinar cell-derived relative to ductal cell-derived PDAC lines (FIG. 4C)) was “increased viability”.
